Measurements reported in US20190374576A1, “VIRAL METHODS OF T CELL THERAPY” (Intima Bioscience, Inc., priority 2016, published 2019).

Columns and labels:
Test in all cases: Validation of gRNAs: Surveyor digest, gel electrophoresis, densitometry in HEK293T cells
Assay type in all cases: cell-based, human
PD1 = PD1 target gene site, 3 days
Protocol: HEK293T cells were plated out at a density of 1×10^5 cells per well in a 24 well plate. 150 uL of Opti-MEM medium was combined with 1.5 ug of gRNA plasmid, 1.5 ug of Cas9 plasmid. Another 150 uL of Opti-MEM medium was combined with 5 ul of Lipofectamine 2000 Transfection reagent (Invitrogen). The solutions were combined together and incubated for 15 minutes at room temperature. […] Cells were incubated for 3 days at 37° C. and genomic DNA was collected using the GeneJET Genomic DNA Purification Kit (Thermo Scientific). Activity of the gRNAs was quantified by a Surveyor Digest, gel electrophoresis, and densitometry (FIG. 60 and FIG. 61) (Guschin, D. Y., et al., “A Rapid and General Assay for Monitoring Endogenous Gene Modification,” Methods in Molecular Biology, 649: 247-256 (2010)).

CCR5 = CCR5 target gene site, 3 days
Protocol: (§1) HEK293T cells were plated out at a density of 1×10^5 cells per well in a 24 well plate. 150 uL of Opti-MEM medium was combined with 1.5 ug of gRNA plasmid, 1.5 ug of Cas9 plasmid. Another 150 uL of Opti-MEM medium was combined with 5 ul of Lipofectamine 2000 Transfection reagent (Invitrogen). The solutions were combined together and incubated for 15 minutes at room temperature. The DNA-lipid complex was added dropwise to wells of the 24 well plates. Cells were incubated for 3 days at 37° C. and genomic DNA was collected using the GeneJET Genomic DNA Purification Kit (Thermo Scientific). Activity of the gRNAs was quantified by a Surveyor Digest, gel electrophoresis, and densitometry (FIG. 60 and FIG. 61) (Guschin, D. Y., et al., “A Rapid and General Assay for Monitoring Endogenous Gene Modification,” Methods in Molecular Biology, 649: 247-256 (2010)).

CTLA4 = CTLA4 target gene site, 3 days
Protocol: as §1

PD1 gRNA#2: sense primer SEQ ID 35 CACCGCCTGCTCGTGGTGACCGAAG
efficiency of Cas9/gRNA pair in creating double strand break (DSB), percent of gene modifications (PD1): >60%

CCR5 gRNA#2: sense primer SEQ ID 63 CACCGTCATCCTCCTGACAATCGAT
efficiency of Cas9/gRNA pair in creating double strand break (DSB), percent of gene modifications (CCR5): >60%

B1: CTLA4 gRNA#3: sense primer (SEQ ID printed 'Si') … (nucleic acid)
guide: GCTAGATGATTCCATCTGCACGUUUUAGAGCUAGAAAUAGCAAGUUAAAAUAAGGCUAGUCCGUUAUCAACUUGAAAAAGUGGCACCGAGUCGGUGCUUUU
modifications: 2'-O-methyl 3'-phosphorothioate modifications added, positions not given here
efficiency of Cas9/gRNA pair in creating double strand break (DSB), percent of gene modifications (CTLA4): 39.33%
